What was measured:
Format in all cases: cell-based
[1] = test system: NCI-H322 cells; assay: Cell growth inhibitory effect on human lung cancer cell line (cell counting kit 8, 6 days); details: 144 h; human lung cancer cell line NCI-H322, 6 days incubation
Text: (§1) NCI-H226 cells, a human mesothelioma cell line (ATCC, CRL-5826), NCI-H322 cells, a human lung cancer cell line (the European Collection of Authenticated Cell Cultures, 95111734), OUTOKO cells, a human ovarian cancer cell line (JCRB cell bank, KRB1048) and […] were each subcultured by keeping the cell density under 80% in a RPMI1640 culture medium with 10% fetal bovine serum (FBS). NCI-H226 cells, NCI-H322 cells and SSP-25 cells were each suspended in the RPMI1640 culture medium mentioned above, and plated to a 96-well flat-bottom plate at 500 cells/well in each well, and incubated at 37° C. in an incubator with 5% CO2 for one day. After the incubation, the evaluation of cell growth inhibitory activity was started. OVTOKO cells were suspended in the RPMI1640 culture medium mentioned above, and plated to a 96-well flat-bottom plate at 250 cells/well in each well, and incubated it at 37° C. in an incubator with 5% CO2 for one day. After the incubation, the evaluation of the cell growth inhibitory activity was started. The next day, a test compound was serially diluted to 5 times of its final concentration in the RPM11640 culture medium mentioned above, and the diluted solution was added to each well. In this case, the final concentration of DMSO in each well was adjusted to 0.1%. After the test compound was added, cells were incubated at 37° C. in an incubator with 5% CO2 for 6 days. At the addition of the test compound and 6 days after the addition, the cell counting measurement was performed using a cell counting kit 8 (made by DOJINDO) according to a protocol equivalent to DOJINDO's recommendation. A reagent contained in the kit was added to each plate and color reaction was performed for 2 or 3 hours at 37° C. in an incubator with 5% CO2. After the reaction, an absorbance at wavelength of 450 nm was measured using a microplate reader. A growth inhibition rate was calculated according to the following formula, from which the concentration of a test compound at which cell growth was inhibited by 50% (GI50 value) was determined.

[2] = test system: NCI-H226 cells; assay: Cell growth inhibitory effect on human mesothelioma cell line (cell counting kit 8, 6 days); details: NCI-H226, 144 h
Text: as §1

[3] = test system: HuH28 cells; assay: Cell growth inhibitory effect on human liver cancer cell line (cell counting kit 8, 6 days); details: 144 h; human liver cancer cell line HuH28, 6 days incubation
Text: as §1

[4] = test system: OVTOKO cells; assay: Cell growth inhibitory effect on human ovarian cancer cell line (cell counting kit 8, 6 days); details: 144 h, 6 days incubation
Text: as §1

Row | Structure (SMILES) | GI50 [1] [nM] | GI50 [2] [nM] | GI50 [3] [nM] | GI50 [4] [nM]
1 | C=CC(=O)N[C@@H]1CC[C@H](Oc2ccc(C(F)(F)F)cc2)c2nc(C)ccc21 (relative stereo) [Compound 184, cis-N-[2-Methyl-8-{4-(trifluoromethyl)phenoxy}-5,6,7,8-tetrahydroquinolin-5-yl]acrylamide] | < 1000 | < 100 | – | ≤ 3000
2 | C=CC(=O)N[C@@H]1CC[C@H](Oc2ccc(C(F)(F)F)c(F)c2)c2nc(Cl)ccc21 (relative stereo) [Compound 187, cis-N-[2-Chloro-8-{3-fluoro-4-(trifluoromethyl)phenoxy}-5,6,7,8-tetrahydroquinolin-5-yl]acrylamide] | < 1000 | < 100 | < 3000 | ≤ 3000
3 | C=CC(=O)NC1CC[C@H](Oc2ccc(Cl)cc2)c2nc(Cl)ccc21 (stereo in doubt) [Compound 70, cis-N-{2-Chloro-8-(4-chlorophenoxy)-5,6,7,8-tetrahydroquinolin-5-yl}acrylamide] | < 1000 | < 100 | – | ≤ 3000
4 | C=CC(=O)N[C@@H]1CC[C@H](Oc2ccc(C(F)(F)F)cc2)c2cnccc21 (stereo in doubt) [Compound 228, N-[8-{4-(Trifluoromethyl)phenoxy}-5,6,7,8-tetrahydroisoquinolin-5-yl]acrylamide] | < 1000 | – | – | –
5 | C=CC(=O)NCc1cc(Oc2ccc(C(F)(F)F)cc2)c2ncccc2c1 [Compound 214] | < 1000 | < 100 | – | –
6 | C=CC(=O)NCc1ccc(Oc2ccc(C(F)(F)F)cc2)c2nc(-c3ccccc3)oc12 [Compound 246, N-([2-Phenyl-4-{4-(trifluoromethyl)phenoxy}benzo[d]oxazol-7-yl]methyl) acrylamide] | < 1000 | 100 to 1000 | < 3000 | –
7 | C=CC(=O)NCc1ccc(Oc2ccc(C(F)(F)F)cn2)c2nc(CC)oc12 [Compound 252, N-{(2-Ethyl-4-[{5-(trifluoromethyl)pyridin-2-yl}oxy]benzo[d]oxazol-7-yl)methyl}acrylamide] | < 1000 | < 100 | < 3000 | –
8 | C=CC(=O)NCc1ccc(Oc2ccc(C(F)(F)F)cc2)c2oc(C)nc12 [Compound 253, N-([2-Methyl-7-{4-(trifluoromethyl)phenoxy}benzo[d]oxazol-4-yl]methyl)acrylamide] | < 1000 | < 100 | < 3000 | –
9 | C=CC(=O)NCc1ccc(Oc2ccc(C(F)(F)F)cc2)c2sc(C)nc12 [Compound 257, N-([2-Methyl-7-{4-(trifluoromethyl)phenoxy}benzo[d]thiazol-4-yl]methyl)acrylamide] | < 1000 | < 100 | < 3000 | –
10 | C=CC(=O)NC1CCOc2nc(Oc3ccc(C(F)(F)F)cc3)ccc21 (stereo not drawn) [Compound 259, N-[7-{4-(Trifluoromethyl)phenoxy}-3,4-dihydro-2H-pyrano[2,3-b]pyridin-4-yl]acrylamide] | < 1000 | 100 to 1000 | – | –
11 | C=CC(=O)NC1COc2c(Br)cc(Oc3ccc(C(F)(F)F)cc3)cc21 (stereo not drawn) [Compound 263, N-[7-Bromo-5-{4-(trifluoromethyl)phenoxy}-2,3-dihydrobenzofuran-3-yl]acrylamide] | < 1000 | < 100 | – | –
12 | C=CC(=O)NC1COc2c(Oc3ccc(C(F)(F)F)cc3)cccc21 (stereo not drawn) [Compound 264, N-[7-{4-(Trifluoromethyl)phenoxy}-2,3-dihydrobenzofuran-3-yl]acrylamide] | < 1000 | < 100 | – | –
13 | C=CC(=O)NCc1ccc(S(=O)(=O)c2ccc(C(F)(F)F)cc2)c2nc(C)oc12 [Compound 271, N-{(2-Methyl-4-[{4-(trifluoromethyl)phenyl}sulfonyl]benzo[d]oxazol-7-yl)methyl}acrylamide] | – | – | < 3000 | ≤ 3000
14 | C=CC(=O)NCc1ccc(OC2CCCCC2)c2nc(C)oc12 [Compound 276, N-[{4-(Cyclohexyloxy)-2-methylbenzo[d]oxazol-7-yl}methyl]acrylamide] | – | < 100 | < 3000 | ≤ 3000

Second part, the molecule after the results:

Row | GI50 [1] [nM] | GI50 [2] [nM] | GI50 [3] [nM] | GI50 [4] [nM] | Structure (SMILES)
15 | < 1000 | < 100 | < 3000 | ≤ 3000 | C=CC(=O)N[C@@H]1CC[C@H](Oc2ccc(C(F)(F)F)cc2)c2nc(OC)ccc21 (relative stereo) [Compound 179, cis-N-[2-Methoxy-8-{4-(trifluoromethyl)phenoxy}-5,6,7,8-tetrahydroquinolin-5-yl]acrylamide]
16 | < 1000 | < 100 | < 3000 | ≤ 3000 | C=CC(=O)N[C@@H]1CC[C@H](Oc2ccc(C(F)(F)F)cc2)c2nc(C3CC3)ccc21 (relative stereo) [Compound 185, cis-N-[2-Cyclopropyl-8-{4-(trifluoromethyl)phenoxy}-5,6,7,8-tetrahydroquinolin-5-yl]acrylamide]
17 | < 1000 | < 100 | < 3000 | ≤ 3000 | C=CC(=O)N[C@@H]1CC[C@H](Oc2ccc(C(F)(F)F)cn2)c2nc(Cl)ccc21 (relative stereo) [Compound 189, cis-N-(2-Chloro-8-[{5-(trifluoromethyl)pyridin-2-yl}oxy]-5,6,7,8-tetrahydroquinolin-5-yl)acrylamide]
18 | < 1000 | < 100 | < 3000 | ≤ 3000 | C=CC(=O)NC1CC[C@H](Oc2cccc(Cl)c2)c2ncccc21 (stereo in doubt) [Compound 68, cis-N-{8-(3-Chlorophenoxy)-5,6,7,8-tetrahydroquinolin-5-yl}acrylamide]
19 | < 1000 | < 100 | – | ≤ 3000 | C=CC(=O)NC1CC[C@H](Oc2ccc(Cl)cc2)c2nc(OC)ccc21 (stereo in doubt) [Compound 71, cis-N-{8-(4-Chlorophenoxy)-2-methoxy-5,6,7,8-tetrahydroquinolin-5-yl}acrylamide]
20 | < 1000 | < 100 | – | ≤ 3000 | C=CC(=O)NC1CC[C@H](Oc2ccc(C(F)(F)F)cc2)c2nc(Cl)ccc21 (stereo in doubt) [Compound 76, cis-N-[2-Chloro-8-{4-(trifluoromethyl)phenoxy}-5,6,7,8-tetrahydroquinolin-5-yl]acrylamide]
21 | < 1000 | < 100 | – | ≤ 3000 | C=CC(=O)NC1CC[C@@H](Oc2ccc(C(F)(F)F)cc2)c2nc(Cl)ccc21 (stereo in doubt) [Compound 82, trans-N-[2-Chloro-8-{4-(trifluoromethyl)phenoxy}-5,6,7,8-tetrahydroquinolin-5-yl]acrylamide]
22 | < 1000 | < 100 | < 3000 | – | C=CC(=O)NCc1ccc(Oc2ccc(C(F)(F)F)cc2)c2nc(C(C)C)oc12 [Compound 245, N-([2-Isopropyl-4-{4-(trifluoromethyl)phenoxy}benzo[d]oxazol-7-yl]methyl)acrylamide]
23 | < 1000 | 100 to 1000 | – | – | C=CC(=O)NCc1ccc(Oc2ccc(C(F)(F)F)cc2)c2nc(C(F)(F)F)oc12 [Compound 248, N-([2-(Trifluoromethyl)-4-{4-(trifluoromethyl)phenoxy}benzo[d]oxazol-7-yl]methyl)acrylamide]
24 | < 1000 | < 100 | < 3000 | – | C=CC(=O)NCc1ccc(Oc2ccc(C(F)(F)F)nc2)c2nc(CC)oc12 [Compound 251, N-{(2-Ethyl-4-[{6-(trifluoromethyl)pyridin-3-yl}oxy]benzo[d]oxazol-7-yl)methyl}acrylamide]
25 | < 1000 | < 100 | – | – | C=CC(=O)NC1COc2ccc(Oc3ccc(C(F)(F)F)cc3)cc21 (stereo not drawn) [Compound 262, N-[5-{4-(Trifluoromethyl)phenoxy}-2,3-dihydrobenzofuran-3-yl]acrylamide]
26 | < 1000 | 100 to 1000 | – | – | C=CC(=O)NC1COc2cc(Oc3ccc(C(F)(F)F)cc3)ccc21 (stereo not drawn) [Compound 265, N-{6-[4-(Trifluoromethyl)phenoxy]-2,3-dihydrobenzofuran-3-yl}acrylamide]
27 | < 1000 | 100 to 1000 | – | – | C=CC(=O)NC1COc2cc(C)c(Oc3ccc(C(F)(F)F)cc3)cc21 (stereo not drawn) [Compound 266, N-{6-Methyl-5-[4-(trifluoromethyl)phenoxy]-2,3-dihydrobenzofuran-3-yl}acrylamide]
28 | – | 100 to 1000 | < 3000 | ≤ 3000 | C=CC(=O)NCc1ccc(/C=C/c2ccc(C(F)(F)F)cc2)c2nc(C)oc12 [Compound 273, (E)-N-([2-Methyl-4-{4-(trifluoromethyl)styryl}benzo[d]oxazol-7-yl]methyl)acrylamide]
